Experimental findings from patent publication US20100311714A1, “1H-IMIDAZO[4,5-c]QUINOLINONE COMPOUNDS” (priority 2009, published 2010) are described below.

A short description of data set [1]: High-throughput equilibrium solubility at pH 6.8. Conditions: pH 6.8, aqueous buffer, thermodynamic from solid; read-out: HT-Eq Sol/pH 6.8. Type of data set: physicochemical. From the text:
(§1) The physicochemical properties of relevance for the absorption of the compound, such as the solubility and the membrane permeability, especially at a pH close to neutral pH can be measured using the procedure as described by L. ZHOU et al. in JOURNAL OF PHARMACEUTICAL SCIENCES, VOL. 96, NO. 11, p. 3052-3071 (2007) for the solubility at pH 6.8 and the procedure as described by F. Wohnsland and B. Faller in Journal of Medicinal Chemistry Vol 44, p. 923-930 (2001) for the Parallel Artificial Membrane Permeability Assay (PAMPA) at pH 6.8.

For another data set, the target named is T1, mTOR (Homo sapiens, UniProt P42345).
T1 construct: purchased Invitrogen Corporation (Carlsbad/Calif., USA) PV4753
The data set is described as follows: Biochemical assay for m-TOR by TR-FRET. The procedure:
Biochemical Assay for m-TOR by TR-FRET.
Assay components are purchased from Invitrogen Corporation (Carlsbad/Calif., USA): GFP-4EBP1 (Cat. No. PV4759), Tb3+-α-p4EBP1 [pThr46] Antibody (Cat. No. PV4757), proprietary TR-FRET dilution buffer (Cat. No. PV3574), mTOR protein (Cat. No. PV4753).
50 nL of compound dilutions (final concentration of 10, 3.0, 1.0, 0.3, 0.1, 0.03, 0.01 and 0.003 μM) are dispensed onto black 384-well low volume non-binding polystyrene (Cat. No. NBS#3676, Corning, Lowell/Mass., USA). Then 5 μL of ATP (8 μM final concentration) and GFP-4EBP1 (400 nM final concentration) with 5 μL mTOR proteins (0.5 nM final concentration) are incubated at rt. The standard reaction buffer for the TR-FRET mTOR assay contained 50 mM HEPES pH 7.5, 10 mM MnCl2, 50 mM NaCl, 1 mM EGTA, 1 mM DTT. Reactions were stopped with 10 μL of a mixture of EDTA containing the Tb3+-α-p4EBP1[pT46] detection Ab (0.5 nM) in TR-FRET dilution buffer (proprietary to IVG). Plates are read 15 mins later in a Synergy2 reader using an integration time of 0.2 seconds and a delay of 0.1 seconds. Control for the 100% inhibition of the kinase reaction is performed by replacing the mTOR kinase by the standard reaction buffer. The control for the 0% inhibition is given by the solvent vehicle of the compounds (90% DMSO in H2O). A standard compound is used as a reference compound and included in all assay plates in the form of 16 dilution points in duplicate.

Data set [2] can be described thus: Parallel Artificial Membrane Permeability Assay (PAMPA) at pH 6.8. Type of data set: physicochemical.
Text: as §1
The following permeability log Pe was measured for compound of formula (I) as exemplified below: […]

Converted amounts (≈) assume the structure as drawn. Where two headings read alike, the source gives them in different places. Bounds are passed on as bounds.

T1 sequence (P42345 1360-2549 limits assumed): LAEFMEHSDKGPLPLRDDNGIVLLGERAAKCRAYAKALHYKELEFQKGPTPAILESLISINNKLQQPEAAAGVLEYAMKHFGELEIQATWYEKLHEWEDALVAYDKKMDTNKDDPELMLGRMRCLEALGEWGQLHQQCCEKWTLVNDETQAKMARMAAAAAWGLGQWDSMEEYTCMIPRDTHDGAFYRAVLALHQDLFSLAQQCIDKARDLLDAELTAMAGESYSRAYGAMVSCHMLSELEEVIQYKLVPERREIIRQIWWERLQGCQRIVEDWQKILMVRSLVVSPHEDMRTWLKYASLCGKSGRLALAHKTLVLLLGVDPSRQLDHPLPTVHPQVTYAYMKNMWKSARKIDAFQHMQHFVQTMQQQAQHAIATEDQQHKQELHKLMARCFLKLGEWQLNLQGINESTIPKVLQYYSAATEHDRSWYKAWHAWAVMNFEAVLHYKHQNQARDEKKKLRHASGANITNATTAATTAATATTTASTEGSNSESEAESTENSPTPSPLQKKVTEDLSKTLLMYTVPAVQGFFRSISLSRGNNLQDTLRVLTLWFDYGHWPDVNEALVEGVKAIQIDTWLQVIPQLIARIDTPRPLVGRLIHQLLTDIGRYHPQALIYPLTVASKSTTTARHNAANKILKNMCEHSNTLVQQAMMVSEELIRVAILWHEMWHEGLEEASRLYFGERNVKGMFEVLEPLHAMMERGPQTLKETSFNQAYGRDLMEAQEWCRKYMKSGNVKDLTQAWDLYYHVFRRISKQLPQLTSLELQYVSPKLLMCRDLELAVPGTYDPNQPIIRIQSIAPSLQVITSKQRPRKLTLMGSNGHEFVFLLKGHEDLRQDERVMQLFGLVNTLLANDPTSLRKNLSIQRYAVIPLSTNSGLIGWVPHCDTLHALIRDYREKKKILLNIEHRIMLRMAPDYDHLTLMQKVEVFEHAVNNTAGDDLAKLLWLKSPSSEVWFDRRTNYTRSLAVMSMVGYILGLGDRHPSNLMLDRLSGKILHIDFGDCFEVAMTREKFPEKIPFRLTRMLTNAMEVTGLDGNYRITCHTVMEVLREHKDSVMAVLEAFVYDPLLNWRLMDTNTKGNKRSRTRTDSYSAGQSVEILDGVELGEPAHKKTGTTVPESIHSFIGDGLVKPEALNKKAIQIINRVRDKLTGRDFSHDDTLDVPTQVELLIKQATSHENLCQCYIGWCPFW

For the molecule `COc1ncccc1-n1c(=O)n(C)c2cnc3ccc(-c4cnc5[nH]ccc5c4)cc3c21` [Example 1.2, 1-(2-Methoxy-pyridin-3-yl)-3-methyl-8-(1H-pyrrolo[2,3-b]pyridin-5-yl)-1,3-dihydro-imidazo[4,5-c]quinolin-2-one], the solubility thermodynamic in data set [1] came out at 3 µg/mL (≈ 7.1 µM). Besides, on mTOR (read-out: mTOR/IC50), the IC50 worked out at 4 nM. For the same molecule, the “HT-perm/logPe pH6.8” value in data set [2] is recorded as −4.5.
Regarding `COc1ncccc1-n1c(=O)n(C)c2cnc3ccc(-c4ccc(C(N)=O)cc4)cc3c21` [Example 1.6, 4-[1-(2-Methoxy-pyridin-3-yl)-3-methyl-2-oxo-2,3-dihydro-1H-imidazo[4,5-c]quinolin-8-yl]-benzamide], in data set [1], the solubility thermodynamic is 2 µg/mL (≈ 4.7 µM). Also, on mTOR (read-out: mTOR/IC50), the IC50 turned out to be 10 nM.
For `Cc1ncccc1-n1c(=O)n(C)c2cnc3ccc(-c4ccc(C(N)=O)cc4)cc3c21` [Example 2.3, 4-[3-Methyl-1-(2-methyl-pyridin-3-yl)-2-oxo-2,3-dihydro-1H-imidazo[4,5-c]quinolin-8-yl]-benzamide] the same measures were 15 µg/mL (≈ 36.6 µM) and 11 nM.
Consider `CCOc1ncc(-c2ccc3ncc4c(c3c2)n(-c2cccnc2C)c(=O)n4C)cn1` [Example 2.5, 8-(2-Ethoxy-pyrimidin-5-yl)-3-methyl-1-(2-methyl-pyridin-3-yl)-1,3-dihydro-imidazo[4,5-c]quinolin-2-one], for which the solubility thermodynamic in data set [1] came out at 48 µg/mL (≈ 116 µM). For the same molecule, the IC50 at mTOR (read-out: mTOR/IC50) worked out at 166 nM. Besides, the “HT-perm/logPe pH6.8” value in data set [2] was −4.0.
As for `Cc1ncccc1-n1c(=O)n(C)c2cnc3ccc(-c4ccc(CO)nc4)cc3c21` [Example 2.6, 8-(6-Hydroxymethyl-pyridin-3-yl)-3-methyl-1-(2-methyl-pyridin-3-yl)-1,3-dihydro-imidazo[4,5-c]quinolin-2-one], the solubility thermodynamic in data set [1] was 125 µg/mL (≈ 315 µM). Further, the IC50 on mTOR (read-out: mTOR/IC50) turned out to be 104 nM.
For `Cc1ncccc1-n1c(=O)n(C)c2cnc3ccc(-c4ccc(N)nc4)cc3c21` [Example 2.7, 8-(6-Amino-pyridin-3-yl)-3-methyl-1-(2-methyl-pyridin-3-yl)-1,3-dihydro-imidazo[4,5-c]quinolin-2-one] the same measures were 17 µg/mL (≈ 44.5 µM) and 18 nM.
As for `COc1ccc(-c2ccc3ncc4c(c3c2)n(-c2cccnc2C)c(=O)n4C)cc1OC` [Example 2.9, 8-(3,4-Dimethoxy-phenyl)-3-methyl-1-(2-methyl-pyridin-3-yl)-1,3-dihydro-imidazo[4,5-c]quinolin-2-one], the solubility thermodynamic in data set [1] was determined as 12 µg/mL (≈ 28.1 µM). The IC50 at mTOR (read-out: mTOR/IC50) was found to be 23 nM. The “HT-perm/logPe pH6.8” value in data set [2] is −3.3.
On to `Cc1ncccc1-n1c(=O)n(C)c2cnc3ccc(-c4ccc(OCCCN(C)C)nc4)cc3c21` [Example 2.10, 8-[6-(3-Dimethylamino-propoxy)-pyridin-3-yl]-3-methyl-1-(2-methyl-pyridin-3-yl)-1,3-dihydro-imidazo[4,5-c]quinolin-2-one], for which the solubility thermodynamic in data set [1] was greater than 469 µg/mL. In addition, the IC50 on mTOR (read-out: mTOR/IC50) came to 600 nM.
On to `CCOc1ncc(-c2ccc3ncc4c(c3c2)n(-c2ncccc2C)c(=O)n4C)cn1` [Example 3.1, 8-(2-Ethoxy-pyrimidin-5-yl)-3-methyl-1-(3-methyl-pyridin-2-yl)-1,3-dihydro-imidazo[4,5-c]quinolin-2-one], for which the solubility thermodynamic in data set [1] was 39 µg/mL (≈ 94.6 µM). Also, the “HT-perm/logPe pH6.8” value in data set [2] was −3.8.
`Cc1cccnc1-n1c(=O)n(C)c2cnc3ccc(-c4ccc(C(N)=O)cc4)cc3c21` [Example 3.3, 4-[3-Methyl-1-(3-methyl-pyridin-2-yl)-2-oxo-2,3-dihydro-1H-imidazo[4,5-c]quinolin-8-yl]-benzamide]: the solubility thermodynamic in data set [1] stood at 5 µg/mL (≈ 12.2 µM). Besides, the IC50 at mTOR (read-out: mTOR/IC50) was found to be 345 nM.
In the case of `CNC(=O)c1ccc(-c2ccc3ncc4c(c3c2)n(-c2ncccc2C)c(=O)n4C)cc1` [Example 3.5, N-Methyl-4-[3-methyl-1-(3-methyl-pyridin-2-yl)-2-oxo-2,3-dihydro-1H-imidazo[4,5-c]quinolin-8-yl]-benzamide], in data set [1], the solubility thermodynamic was 10 µg/mL (≈ 23.6 µM). Also, the IC50 on mTOR (read-out: mTOR/IC50) was 331 nM.
As for `CCOc1ccc(-c2ccc3ncc4c(c3c2)n(-c2ncccc2C)c(=O)n4C)cn1` [Example 3.6, 8-(6-Ethoxy-pyridin-3-yl)-3-methyl-1-(3-methyl-pyridin-2-yl)-1,3-dihydro-imidazo[4,5-c]quinolin-2-one], in data set [1], the solubility thermodynamic was determined as 20 µg/mL (≈ 48.6 µM).
The same measure, in the same setting: next, `Cc1cccnc1-n1c(=O)n(C)c2cnc3ccc(-c4ccc(CO)nc4)cc3c21` [Example 3.9, 8-(6-Hydroxymethyl-pyridin-3-yl)-3-methyl-1-(3-methyl-pyridin-2-yl)-1,3-dihydro-imidazo[4,5-c]quinolin-2-one]: greater than 397 µg/mL.
Turning to `COc1ccc(-c2ccc3ncc4c(c3c2)n(-c2ncccc2C)c(=O)n4C)cc1OC` [Example 3.10, 8-(3,4-Dimethoxy-phenyl)-3-methyl-1-(3-methyl-pyridin-2-yl)-1,3-dihydro-imidazo[4,5-c]quinolin-2-one], in data set [1], the solubility thermodynamic turned out to be 195 µg/mL (≈ 457 µM). Besides, in data set [2], the “HT-perm/logPe pH6.8” value is on record as −3.8.
For `Cc1cccnc1-n1c(=O)n(C)c2cnc3ccc(-c4ccc(N(C)C)nc4)cc3c21` [Example 3.11, 8-(6-Dimethylamino-pyridin-3-yl)-3-methyl-1-(3-methyl-pyridin-2-yl)-1,3-dihydro-imidazo[4,5-c]quinolin-2-one] the same measures were 39 µg/mL (≈ 95 µM) and −3.4.
Taken in the same sequence, the figures for `Cc1ccncc1-n1c(=O)n(C)c2cnc3ccc(-c4ccc(CO)nc4)cc3c21` [Example 4.1, 8-(6-Hydroxymethyl-pyridin-3-yl)-3-methyl-1-(4-methyl-pyridin-3-yl)-1,3-dihydro-imidazo[4,5-c]quinolin-2-one] were 75 µg/mL (≈ 189 µM) and −6.1.
For `CCOc1ccc(-c2ccc3ncc4c(c3c2)n(-c2cnccc2C)c(=O)n4C)cn1` [Example 4.2, 8-(6-Ethoxy-pyridin-3-yl)-3-methyl-1-(4-methyl-pyridin-3-yl)-1,3-dihydro-imidazo[4,5-c]quinolin-2-one], in data set [1], the solubility thermodynamic was 50 µg/mL (≈ 122 µM). Besides, the “HT-perm/logPe pH6.8” value in data set [2] is −3.5.
With `Cn1c(=O)n(-c2cccnc2)c2c3cc(-c4ccc(CO)nc4)ccc3ncc21` [Example 5.1, 8-(6-Hydroxymethyl-pyridin-3-yl)-3-methyl-1-pyridin-3-yl-1,3-dihydro-imidazo[4,5-c]quinolin-2-one], the solubility thermodynamic in data set [1] was 15 µg/mL (≈ 39.1 µM). The IC50 on mTOR (read-out: mTOR/IC50) came out at 351 nM.
As to `CCOc1ccc(-c2ccc3ncc4c(c3c2)n(-c2ccc(N3CCNCC3)nc2OC)c(=O)n4C)cn1` [Example 9.1, 8-(6-Ethoxy-pyridin-3-yl)-1-(2-methoxy-6-piperazin-1-yl-pyridin-3-yl)-3-methyl-1,3-dihydro-imidazo[4,5-c]quinolin-2-one], the solubility thermodynamic in data set [1] worked out at 61 µg/mL (≈ 119 µM).
The same measure, in the same setting: under `COc1nc(N2CCNCC2)ccc1-n1c(=O)n(C)c2cnc3ccc(-c4cnc(N)c(C(F)(F)F)c4)cc3c21` [Example 9.2, 8-(6-Amino-5-trifluoromethyl-pyridin-3-yl)-1-(2-methoxy-6-piperazin-1-yl-pyridin-3-yl)-3-methyl-1,3-dihydro-imidazo[4,5-c]quinolin-2-one] stands 13 µg/mL (≈ 23.6 µM).
On to `Cc1nc(N2CCC2)ccc1-n1c(=O)n(C)c2cnc3ccc(-c4cncc(N5CCC5)c4)cc3c21` [Example 23.1, 1-(6-Azetidin-1-yl-2-methyl-pyridin-3-yl)-8-(5-azetidin-1-yl-pyridin-3-yl)-3-methyl-1,3-dihydro-imidazo[4,5-c]quinolin-2-one], for which the solubility thermodynamic in data set [1] is 22 µg/mL (≈ 46.1 µM). Besides, the IC50 at mTOR (read-out: EPK_mTOR/IC50) was 9 nM.
With `CNc1ccc(-c2ccc3ncc4c(c3c2)n(-c2ccc(N3CCC3)nc2C)c(=O)n4C)cn1` [Example 23.4, 1-(6-Azetidin-1-yl-2-methyl-pyridin-3-yl)-3-methyl-8-(6-methylamino-pyridin-3-yl)-1,3-dihydro-imidazo[4,5-c]quinolin-2-one], the solubility thermodynamic in data set [1] was found to be 9 µg/mL (≈ 19.9 µM). Further, the IC50 at mTOR (read-out: EPK_mTOR/IC50) came out at 6 nM.
Taken in the same sequence, the figures for `COc1ncc(-c2ccc3ncc4c(c3c2)n(-c2ccc(N3CC(O)C3)nc2C)c(=O)n4C)c(OC)n1` [Example 29.6, 8-(2,4-Dimethoxy-pyrimidin-5-yl)-1-[6-(3-hydroxy-azetidin-1-yl)-2-methyl-pyridin-3-yl]-3-methyl-1,3-dihydro-imidazo[4,5-c]quinolin-2-one] were 15 µg/mL (≈ 30 µM) and 11 nM.
